Data published in US9572760B2, “Uses of compounds and mixtures from Antrodia cinnamomea mycelia” (Simpson Biotech Co., Ltd., priority 2013, dated 2017).

How the values were obtained:
B16F10 cells = assay: Melanin content in B16F10 cells after UV irradiation; format: cell-based, murine; conditions: 10 μM for 72 hrs prior to UV irradiation; UV alone 33.80±4.6% increase over non-UV cells (7.4±0.3 μg/mg protein)
Excerpt: (§1) The dermal fibroblast cell line CG1639 was obtained from the BCRC (Bioresource Collection and Research Center) and cultured in Dulbecco's modified Eagle media (DMEM, Gibco by Invitrogen) with 1% antibiotic antimycotic (Gibco by Invitrogen) and 15% fetal bovine serum (Gibco by Invitrogen). The fetal rat skin keratinocyte, FRSK cell line was obtained from the Japan HSRRB (Health Science Research Resources Bank) and cultured in Eagle's minimal essential media (MEM, Gibco by Invitrogen) supplemented with 10% fetal bovine serum (FBS) (Gibco by Invitrogen) and 1% antibiotic antimycotic (Gibco by Invitrogen). B16F10 cells, a murine melanoma cell line, were purchased from American Type Culture Collection (ATCC, Rockville, Md., USA) and was cultured in Eagle's Minimum Essential Medium (MEM; Sigma, St. Louis, Mo.) supplemented with 10% fetal bovine serum (FBS; HyClone Lab. Inc., Logan, Utah), 0.02% antibiotic-antimycotic liquid (penicillin, 10 000 U mL^−1; streptomycin, 10 000 μg mL^−1 and amphotericin B, 25 μg mL^−1; Invitrogen, Carlsbad, Calif.).
(§2) To investigate the induction of melanogenesis and the oxidative stress by direct UV irradiation, melanoma cells and keratocytes were irradiated with 8 J cm^−2 of UVA (FL15BLB, 352 nm, 15 W; Toshiba, Tokyo, Japan) and 10 mJ cm^−2 of UVB (G15T8E, 306 nm, 15 W; Sankyo Denki, Tokyo, Japan) in a HANKS' balanced salt solution (Sigma). The UV intensity was measured by using a Model UVX Digital Radiometer (UVP Inc., Upland, Calif.).
(§3) B16F10 and FRSK cells were exposed to Hepasim compounds A-D by two different concentrations (3 or 10 μM) for 72 hrs prior to UVA irradiation. DMEM was replaced with phosphate buffered saline (PBS) to avoid generation of medium-derived toxic photoproducts prior to UV irradiation. Cells were collected 24 hrs after UVA irradiation and assayed. For preparation of cell lysate, the harvested cells were pelleted by centrifugation and lysed in lysis buffer containing 50 mM Tris-HCl, 10 mM ethylene diaminetetraacetic acid (EDTA), 1% (v/v) Tri-ton X-100, phenylmethylsulfonyl fluoride (PMSF) (100 mg/ml) and pepstatin A (1 mg/ml) in DMSO and leupeptin (1 mg/ml) in H2O, pH 6.8. The cells were centrifuged at 10,000 rpm for 10 min and the total cell lysate was collected and stored at −80° C.
In order to measure the melanin contents, B16F10 cells were sonicated on ice and the mixture was centrifuged (25 000 g, 10 min, 4° C.). The supernatant was transferred, and pellets were dissolved in 0.85 N KOH at 60° C. for 20 min. Standard melanin (Sigma) was incubated in parallel. Spectrophotometric analysis of melanin content was then performed at an absorbance of 405 nm

HSC [1] = assay: HSC proliferation by BrdU assay; format: cell-based; conditions: highest concentration (80 μM), 72 hours
Method: The Cell Proliferation ELISA, BrdU kit was designed to quantitate cell proliferation bases on the measurement of BrdU incorporation during DNA synthesis in proliferation cells. Briefly, cells (1×10^4 cells/well) were seeded in 100 μl medium in a 96-well plate (Nunc, Denmark) and cultured for 24 h to allow the cells to attach and then treated with three different concentrations ([…]) of either Compound A, B, C and D for 24 h, 48 h and 72 h and the plates were incubated in 37° C. After incubation, the culture medium was labeled with 10 μl/well BrdU (Roche Diagnostic Inc.), and the cells were reincubated for addition 16 h at 37° C. Labeling medium was removed using 10 min centrifuge at 200×g and blow dried. Cells were fixed using 200 μl FixDenat solution and incubated for 30 min at room temperature. Removing the FixDenat solution, 100 μl of anti-BrdU-POD was added and incubated for 90 min at room temperature. After the incubation period, microplates were washed three times with PBS buffer and 100 μl substrate solution was added and incubated for 30 min. Stop solution was added (25 μl of 1 M H2SO4) and absorbance of the samples was measured using ELISA reader at 450 nm.

HSC [2] = assay: HSC apoptosis by cell death detection ELISA; format: cell-based; conditions: highest concentration (80 μM), 72 hours
Method: Apoptosis was detected with a sandwich immunoassay system using a cell death detection ELISA kit (Roche Diagnostic Inc.). Roche's Cell Death Detection ELISA kit qualitatively and quantitatively detects the amount of cleaved DNA/histone complexes (nucleosomes) in a given sample using a sandwich-enzyme-immunoassay-based method. The cells (1×10^4 cells/well) were seeded in 100 μl medium in a 96-well plate (Nunc, Denmark) and cultured for 24 h to allow the cells to attach and then treated with three different concentrations (8 μM, 24 μM and 80 μM) of either Compound A, B, C and D for 24 h, 48 h and 72 h and the plates were incubated in 37° C. After incubation, the 96 well plates were centrifuged for 10 min at 200×g and removed supernatant and discard, then added 200 μl of lysis buffer per well using multipipetman and incubated 30 min at room temperature, microplates were centrifuged the lysate at 200×g for 10 min. After the centrifuge, 20 μl of the supernatant was transferred into the streptavidin-coated microplate, then added 80 μl of immunoreagent to each well. The microplate was covered with an adhesive foil and incubated on a shaker under gentle shaking for 2 hour at room temperature. After the incubation period, microplates were washed three times with 250-300 μl incubation buffer and 100 μl ABTS solution was added and incubated for 30 min or until color is sufficient for photometric. ABTS Stop solution was added and absorbance of the samples was measured using ELISA reader at 405 nm, reference wavelength at 490 nm.

tyrosinase = molecular target: T1, tyrosinase (Mus musculus, UniProt P11344); assay: Cellular tyrosinase activity assay (L-DOPA oxidation) in B16F10 cells exposed to UV; format: cell-based, murine; conditions: UV alone 52.55±4.36% increase over non-UV control (3.0±0.5 U/mg protein)
T1 construct: endogenous in cells; host or cells: B16F10 murine melanoma cells (ATCC), total cell lysate
T1 sequence (P11344 19-533): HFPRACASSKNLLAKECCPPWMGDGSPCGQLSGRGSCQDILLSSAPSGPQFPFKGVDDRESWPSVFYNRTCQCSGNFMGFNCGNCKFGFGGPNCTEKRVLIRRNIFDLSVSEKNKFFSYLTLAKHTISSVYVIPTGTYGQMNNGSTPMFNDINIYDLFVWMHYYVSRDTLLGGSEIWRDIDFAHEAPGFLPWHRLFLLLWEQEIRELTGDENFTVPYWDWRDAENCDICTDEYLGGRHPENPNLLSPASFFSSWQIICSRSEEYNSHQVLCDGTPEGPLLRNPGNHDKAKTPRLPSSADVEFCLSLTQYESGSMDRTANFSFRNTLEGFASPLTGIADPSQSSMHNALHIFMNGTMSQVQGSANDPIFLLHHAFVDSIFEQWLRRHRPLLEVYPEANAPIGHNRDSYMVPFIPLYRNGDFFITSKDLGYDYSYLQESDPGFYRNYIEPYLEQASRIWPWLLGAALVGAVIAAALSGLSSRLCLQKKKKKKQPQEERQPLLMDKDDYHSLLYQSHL
Excerpt: as §1, §2, §3
The rate of L-DOPA oxidation was measured to assess cellular tyrosinase activity in B16F10 cells exposed to UV. The assay was performed as below described, 20 mM L-DOPA used as the substrates was added to each lysate in a 96-well plate and absorbance of dopachrome formation was measured spectrophotometrically at 475 nm every 10 min for 1 h at 37° C. by a spectrophotometer. The tyrosinase activity was calculated by comparison to a standard curve using tyrosinase (2034 U/mg) and was expressed as unit/mg protein. The data are expressed as a percentage of the tyrosinase activity (unit/mg protein) of non-irradiated and untreated control cells (100%).

tyrosinase activity in UV-irradiated B16F10 cells (tyrosinase; 3 μM)	tyrosinase activity in UV-irradiated B16F10 cells (tyrosinase; 10 μM)	SMILES	melanin production in UV-irradiated B16F10 cells (B16F10 cells)	HSC proliferation (BrdU assay) (HSC [1])	apoptosis of HSC (cell death detection assay) (HSC [2])
38.5±4.5%	29.25±2.6%	CC(C)=CCOc1ccc([C@H]2C(=O)N(O)C(=O)[C@@H]2CC(C)C)cc1 (relative stereo) [Compound D, (3R*,4S*)-1-hydroxy-3-isobutyl-4-[4-(3-methyl-2-butenyloxy)phenyl]pyrrolidine-2,5-dione]	26.32±2.3%	same but delayed	same but delayed
43.50±3.5%	26.75±2.3%	CC(C)=CCOc1ccc(C2=C(CC(C)C)C(=O)OC2=O)cc1 [Compound A, 3-isobutyl-4-[4-(3-methyl-2-butenyloxy)phenyl]furan-2,5-dione]	23.25±5.5%		
